Results from the PolyMetriX glass transition set.
± gives the standard deviation of the reports.

Row | glass transition temperature | Compound
1 | 60.00 °C | *CCCCCCCCCCCC(=O)Oc1ccc(-c2ccc(OC(=O)c3ccc4c(c3)C(=O)N(*)C4=O)cc2)cc1 (repeat unit)
2 | 133.00 °C | *CCCCCCN1C(=O)c2ccc(C(=O)Oc3ccc(-c4ccc(OC(=O)c5ccc6c(c5)C(=O)N(*)C6=O)cc4)cc3)cc2C1=O (repeat unit)
3 | 197.00 °C | *Oc1ccc(S(=O)(=O)c2ccc(Oc3c(C)cc(C(c4cc(C)c(*)c(C)c4)(C(F)(F)F)C(F)(F)F)cc3C)cc2[Si](C)(C)C)c([Si](C)(C)C)c1 (repeat unit)
4 | 195.00 °C | *c1ccc2oc(-c3ccc4oc5ccc(-c6nc7cc(C(*)(C(F)(F)F)C(F)(F)F)ccc7o6)cc5c4c3)nc2c1 (repeat unit)
5 | 113.4 ± 2.1 °C | *Oc1ccc(Sc2ccc(OC(*)=O)cc2)cc1 (repeat unit) [Poly(4,4'-thiodiphenylene carbonate)]
6 | 293.00 °C | *Oc1ccc(C2(c3ccc(Oc4ccc(C(=O)c5c(C(=O)c6ccc(*)cc6)c(-c6ccc(F)cc6)c(-c6ccc(F)cc6)c(-c6ccc(F)cc6)c5-c5ccc(F)cc5)cc4)cc3)c3ccccc3-c3ccccc32)cc1 (repeat unit)
7 | 107.00 °C | *Oc1ccc(C(C)(C)c2ccc(Oc3cccc(*)n3)cc2)cc1 (repeat unit)
8 | 286.00 °C | *Nc1ccc(Cc2ccc(NC(=O)c3cc(C(*)=O)cc(N4C(=O)C5CC=CCC5C4=O)c3)cc2)cc1 (repeat unit)
9 | 289.50 °C | *c1ccc(Oc2c(C)cc(C(c3cc(C)c(Oc4ccc(N5C(=O)c6ccc(-c7ccc8c(c7)C(=O)N(*)C8=O)cc6C5=O)cc4)c(C)c3)c3cccc4ccccc34)cc2C)cc1 (repeat unit)
10 | 230.00 °C | *Oc1ccc(S(=O)(=O)c2ccc(Oc3ccc(C4CCCC(C(C)c5ccc(*)cc5)C4)cc3)cc2)cc1 (repeat unit)
11 | 126.00 °C | *CCCCN1C(=O)c2ccc(C(=O)Oc3ccc(-c4ccc(OC(=O)c5ccc6c(c5)C(=O)N(*)C6=O)cc4)cc3)cc2C1=O (repeat unit)
12 | 345.50 °C | *c1ccc(-c2ccc(-c3cnc4cc(-c5ccc6nc(*)cnc6c5)ccc4n3)cc2)cc1 (repeat unit)
13 | 60.00 °C | *CCCCCCOC(=O)c1ccc(-c2ccc(-c3ccc(C(=O)O*)cc3)cc2)cc1 (repeat unit)
14 | -9.00 °C | *O[Si](*)(C)CCCCCCOc1ccc(C(=O)Oc2ccc(C(=O)OCC(C)CC)cc2)cc1 (repeat unit)

The remaining lines, values behind:

Row | Compound | glass transition temperature
15 | *c1cccc(*)c1 (repeat unit) | 104.93 °C
16 | *CC(*)(Cl)C(=O)OCCC (repeat unit) | 66.00 °C
17 | *CC(O)CN(*)c1cc(C)cc(C)c1 (repeat unit) | 80.00 °C
18 | *c1ccc(OCCCCCCCCCCCOC(=O)CCCCC(=O)OCCCCCCCCCCCOc2ccc(-c3nnc(*)s3)cc2)cc1 (repeat unit) | 69.00 °C
19 | *c1ccc2c(c1)C(=O)N(c1cc(NC(=O)OCCN(CCOC(=O)Nc3cc(N4C(=O)c5ccc(C(*)(C(F)(F)F)C(F)(F)F)cc5C4=O)ccc3C)c3ccc(/N=N/c4ccc([N+](=O)[O-])cc4)cc3)ccc1C)C2=O (repeat unit) | 196.00 °C
20 | *CC(*)c1ccc(CCl)cc1 (repeat unit) | 113.50 °C
21 | *C(=O)Nc1cccc(NC(=O)c2ccc3c(c2)C(=O)N(c2cccc(P(=O)(c4ccccc4)c4cccc(N5C(=O)c6ccc(*)cc6C5=O)c4)c2)C3=O)n1 (repeat unit) | 156.00 °C
22 | *CC(*)OC(=O)c1ccc(OCC)cc1 (repeat unit) | 70.00 °C
23 | *CC(COC(=O)O*)OCCCCCCOc1ccc(/C=C/c2ccc([N+](=O)[O-])cc2)cc1 (repeat unit) | 32.00 °C
24 | *OC(=O)c1cccc(C(*)=O)c1 (repeat unit) | 130.00 °C
25 | */C=C/C(C)(C(=O)OC)C(*)C (repeat unit) | 34.00 °C
26 | *OC1C(COCC)OC(*)C(OCC)C1OCC (repeat unit) | 131.2 °C
